Laboratory results taken from patent US4168316A, “Immunosuppressive-1-(thiocarbamoyl)-2-imidazolidinone” (Northwestern University, priority 1978, dated 1979).

What was measured:
[1] = tested on: DNFB-induced ear swelling; assay: ear swelling assay, delayed-type contact sensitivity to 2,4-dinitro-1-fluorobenzene (DNFB); assay type: in vivo, inbred mice (C57BL/6J; (C57BL/6J×DBA/2J) F1)
Excerpt: In further proof of the activity of the purified material from Example 3 as compared with niridazole per se, there was employed the ear swelling assay of Phanuphak et al. (1), which measures delayed-type contact sensitivity of inbred mice to 2,4-dinitro-1-fluorobenzene (DNFB). The assay was done according to the following protocol: on Day 1, groups of mice, matched for sex and weight, had their abdomens shaved and received varying doses of niridazole or NIF, the purified product of Example 2. The animals were sensitized on Day 3 with 20 μl of 0.5% (v/v) DNFB in acetone: olive oil (4:1, v/v) applied to the shaved abdomen. The sensitization procedure was repeated on Day 4. On Day 8, mice were lightly anesthetized with ether and the right ear thickness measured (10^-2 ×mm) by a modified dial thickness gauge. The right ear was then challenged with 10 μl of 0.5% DNFB solution. Twenty-four hours later, the mice were again anesthetized and the thickness of the right ear was measured to determine the immune response (swelling to the DNFB challenge).

[2] = tested on: granuloma formation around S. mansoni eggs; assay: granuloma formation around S. mansoni eggs injected intravenously into the pulmonary microvasculature; assay type: in vivo, CF1 Swiss albino female mice; details: niridazole single oral dose 1 mg/kg, Day -1, p<0.005
Experimental: Groups of 5 weanling CF1 Swiss albino female mice (18-22 g body weight) obtained from Carworth Farms, Inc., New City, New York were treated by intravenous injection with different doses of urine fractions at varying time intervals before egg injection. Untreated mice and niridazole treated animals (1 mg/kg body weight given orally on the day before egg injection) were used as controls. […] Fifty granulomas containing eggs in their centers were measured from each experimental group and the significance of the difference was evaluated by the Student's t test.

[3] = tested on: inflammation related to delayed hypersensitivity; details: tests on experimental animals; cited from earlier work
[4] = tested on: delayed hypersensitivity-type reactions; details: cited from earlier work

## NC(=S)N1CCNC1=O [NIF, 1-(thiocarbamoyl)-2-imidazolidinone]
[1]; 10^-8 -10^-10 g/kg pure (NIF) urine extracts
  suppression of ear swelling: 50%
[1]; Exp. II, F1 mice, 1.2 × 10^-8 g/kg ip
  SUPPRESSION: 48 ± 7%
[1]; Exp. II, F1 mice, 1.2 × 10^-8 g/kg ip, n=5, control 30.9
  EAR SWELLING (± SEM): 16.0 ± 2.2 10^-2 × mm
[1]; Exp. II, F1 mice, 1.2 × 10^-10 g/kg ip
  SUPPRESSION: 46 ± 4%
[1]; Exp. II, F1 mice, 1.2 × 10^-10 g/kg ip, n=5, control 30.9
  EAR SWELLING (± SEM): 16.8 ± 1.2 10^-2 × mm
[1]; Exp. III, B6 mice, 1.6 × 10^-8 g/kg ip
  SUPPRESSION: 52 ± 14%
[1]; Exp. III, B6 mice, 1.6 × 10^-8 g/kg ip, n=4, control 36.2
  EAR SWELLING (± SEM): 17.5 ± 5.0 10^-2 × mm
[1]; Exp. III, B6 mice, 1.6 × 10^-8 g/kg iv
  SUPPRESSION: 25 ± 21%
[1]; Exp. III, B6 mice, 1.6 × 10^-8 g/kg iv, n=4, control 36.2
  EAR SWELLING (± SEM): 27.2 ± 7.7 10^-2 × mm
[1]; Exp. III, B6 mice, 1.6 × 10^-10 g/kg ip
  SUPPRESSION: 69 ± 13%
[1]; Exp. III, B6 mice, 1.6 × 10^-10 g/kg ip, n=4, control 36.2
  EAR SWELLING (± SEM): 11.4 ± 4.8 10^-2 × mm
[1]; Exp. III, B6 mice, 1.6 × 10^-10 g/kg iv
  SUPPRESSION: 45 ± 12%
[1]; Exp. III, B6 mice, 1.6 × 10^-10 g/kg iv, n=4, control 36.2
  EAR SWELLING (± SEM): 20.0 ± 4.3 10^-2 × mm
[1]; Exp. III, B6 mice, 1.6 × 10^-11 g/kg iv
  SUPPRESSION: 65 ± 9%
[1]; Exp. III, B6 mice, 1.6 × 10^-11 g/kg iv, n=4, control 36.2
  EAR SWELLING (± SEM): 12.8 ± 3.2 10^-2 × mm
[1]; Exp. III, B6 mice, 1.6 × 10^-12 g/kg iv
  SUPPRESSION: 88 ± 9%
[1]; Exp. III, B6 mice, 1.6 × 10^-12 g/kg iv, n=4, control 36.2
  EAR SWELLING (± SEM): 4.4 ± 3.2 10^-2 × mm
[1]; experiment III, extract dose 10^-12 g/kg
  ear swelling, in words: all but ablated
[1]; extract 10^-8 g/kg i.v.
  suppression at higher doses, in words: less suppression

## O=C1NCCN1c1ncc([N+](=O)[O-])s1 [niridazole, 1-(5-nitro-2-thiazolyl)-2-imidazolidinone, reference compound]
[2]; Table III experiment
  mean granuloma area: 11 ± 2.6 μ^2 × 10^3
[2]; Table IV experiment
  mean granuloma area: 8 ± 2.6 μ^2 × 10^3
[3]
  effect on inflammation related to delayed hypersensitivity, in words: suppression of inflammation related to delayed hypersensitivity including retardation of allograft rejection
[4]; human studies by Webster et al
  suppression of delayed hypersensitivity-type reactions, in words: corroborated the suppression of delayed hypersensitivity-type reactions
[4]; patients undergoing prolonged treatment, Mahmoud et al
  effect on inflammations, in words: suppressed inflammations
[1]; 10^-3 to 10^-4 g/kg niridazole intraperitoneally
  suppression of ear swelling, in words: Significant suppression of ear swelling
[1]; Exp. I, F1 mice, niridazole dose 10^-2, ip
  SUPPRESSION: 37 ± 3%
[1]; Exp. I, F1 mice, niridazole dose 10^-2, ip, n=5, control 26.9
  EAR SWELLING (± SEM): 17.0 ± 0.9 10^-2 × mm
[1]; Exp. I, F1 mice, niridazole dose 10^-3, ip
  SUPPRESSION: 66 ± 4%
[1]; Exp. I, F1 mice, niridazole dose 10^-3, ip, n=5, control 26.9
  EAR SWELLING (± SEM): 9.1 ± 1.2 10^-2 × mm
[1]; niridazole 10 mg/kg
  suppression at higher doses, in words: less suppression
